Experiment [1] concerns male Sprague-Dawley rats. Description: Suture-induced MCAO (30 minutes) followed by 5.5 hours of reperfusion, infarct volume by TTC staining. It counts as in vivo, rat. The note with it: for infarct size / neuroprotection (infarct volume): 5.5 hours reperfusion; for infarct size: p<0.05, FIG. 7; for neuroprotective effect (infarct volume): vs vehicle, FIG. 9; for neuroprotection (infarct volume): inosine 16 mg/kg after 30 mins of occlusion prior to suture removal.

The subject of experiment [2] is male Sprague-Dawley rats. Description: Suture-induced "permanent" (6-hour) MCAO, infarct volume by TTC staining. Type of experiment: in vivo, rat. Conditions: for infarct size: p<0.05, FIG. 6.

The source of these data is patent publication US9086405B2, “Animal stroke model” (UNIVERSITY OF PRINCE EDWARD ISLAND, priority 2010, dated 2015).

“Also recorded” adds a separate entry of the source.

With `CC1=NN(c2ccccc2)C(=O)C1` [edaravone], the infarct size entry with male Sprague-Dawley rats [1] (edaravone 5, 10 or 20 mg/kg i.v. after 30 minutes of MCAO (immediately prior to suture removal), vs 50% DMSO in saline) is reported as “significant decreases in infarct size; also recorded: showed neuroprotective abilities”; with male Sprague-Dawley rats [1] (edaravone 5, 10 or 20 mg/kg i.v. after 30 minutes of MCAO (immediately prior to suture removal), vs 50% DMSO in saline, listed as Edaravone) it was “very powerful neuroprotection”; in the experiment on male Sprague-Dawley rats [2] (edaravone 10, 20 or 40 mg/kg i.v. 30 minutes prior to 6 hours of suture induced-MCAO, vs vehicle 50% DMSO in saline) it was “significant decreases in infarct size; also recorded: significant levels of neuroprotection”.

On to `Nc1nc2c(ncn2[C@@H]2O[C@H](CO)[C@@H](O)[C@H]2O)c(=O)[nH]1` [guanosine], for which the “neuroprotective effect (infarct volume)” value with male Sprague-Dawley rats [1] (guanosine 16 mg/kg injected 30 minutes (+30) after occlusion, immediately prior to suture removal) is “greatest benefit; also recorded: most prominent”; in the experiment with male Sprague-Dawley rats [1] (guanosine 16 mg/kg injected 60 minutes (+60) from start of MCAO, 30 minutes post-suture removal), “significant benefit; also recorded: significant neuroprotection”. Besides, the infarct volume entry is listed as “dose-dependent decrease in infarct volume” with male Sprague-Dawley rats [1] (guanosine 1, 2, 4, 8 or 16 mg/kg intraperitoneally 30 minutes after MCAO (prior to suture removal), 5.5 h reperfusion, FIG. 8) and “decrease in infarct volume; also recorded: reduced infarct size” with male Sprague-Dawley rats [2] (guanosine 1, 2, 4, 8 or 16 mg/kg intraperitoneally 30 minutes prior to "permanent" (6-hour) occlusion, FIG. 8).

As for `OC[C@H]1O[C@@H](n2cnc3c(O)ncnc32)[C@H](O)[C@@H]1O` [inosine], the “neuroprotection (infarct volume)” value in the experiment on male Sprague-Dawley rats [1] (FIG. 8) is recorded as “No neuroprotection”; in the experiment with male Sprague-Dawley rats [1] (FIG. 8, listed as Inosine), “did not cause neuroprotection”.

As to estrogen, the infarct size entry in the experiment on male Sprague-Dawley rats [1] (estrogen 1×10-2 mg/kg i.v. 30 minutes after MCAO (immediately prior to suture removal), vs saline) is listed as “significant decrease in infarct size”; in the experiment on male Sprague-Dawley rats [1] (estrogen 1×10-2 mg/kg i.v. 30 minutes after MCAO (immediately prior to suture removal), vs saline, listed as Estrogen) it was “showed neuroprotective abilities”; in the experiment on male Sprague-Dawley rats [2] (estrogen 1×10-2 mg/kg i.v. 30 minutes prior to 6 hours of suture induced-MCAO, vs estrogen vehicle (saline)) it was “significant decrease in infarct size; also recorded: significant levels of neuroprotection”.
